According to patent publication US20070183995A1, “Compounds useful as agonists of A2A adenosine receptors, cosmetic compositions with A2A agonists and a method for using the same” (Conopco, Inc., d/b/a Unilever, priority 2006, published 2007):

Tested on: Melanoderm cultures (melanogenesis)
Assay: Melanoderm human skin equivalent lightening test (Hunter Lab L value)
Format: cell-based
Conditions: for Average L Value / L Value Range: 3 micromolar in media, dosed 10 times in 3 weeks, Hunter Lab L value, Minolta CR-10 chromameter; for Average L Value: averaged; for L Value Range: triplicate; for ΔL: difference in average Hunter Lab L value, treated vs untreated control cultures, 3 micromolar, 3 weeks
Source text: As used herein, ΔL is defined to mean the difference in Hunter Lab L values when comparing three, three (3) week old Mattek Melanoderm cultures that have not been treated with a composition comprising an agonist of A2A receptors to three, three (3) week old Mattek melanoderm cultures that have been treated with a composition comprising an agonist of A2A receptors wherein treated means: • (a) placing the melanoderm culture within a six (6) well tissue culture dish and set about 0.3 cm off of the tissue culture dish; • (b) subjecting the melanoderm culture to a 3 micromolar composition having an agonist of A2A adenosine receptors, the composition being one prepared from a 10 millimolar solution of A2A agonist and carrier (e.g., dimethyl sulfoxide) having been diluted with Dulbecco's Modified Eagle Media; and • (c) comparing the treated and untreated cultures by obtaining average L values for each with a Minolta CR-10 chromameter.
Commercially available human skin equivalents (Melanoderm from Mattek) were obtained for testing the impact of agonists of A2A adenosine receptors on melanogenesis. Solutions having a final concentration of three (3) micromolar were prepared from a 10 millimolar dimethyl sulfoxide stock solution and dosed ten (10) times in a three (3) week period into the media of the melanoderm cultures. The media consisted of commercially available basal Dulbecco's Modified Eagles media, prepared and treated in the manner set forth in the manufacture's instructions. For long term maintenance of the Melanoderms, the basal media was supplemented with bFGF and alpha MSH to stimulate melanocyte growth and melanogenesis. Each treatment condition was done in triplicate and three (3) sets were made for each treatment, as well as for a control (culture not treated with the agonist). The cultures were maintained at a temperature of about 37° C. and stored in a humidified, 5% CO2 incubator during the dosing period, but removed while being dosed.
After a three (3) week period, Hunter lab L value readings were taken for each condition (with a.Minolta CR-10 chromameter) and then averaged.

Structure (SMILES) | Average L Value | L Value Range | ΔL
Nc1nc(Nc2ccccc2)nc2c1ncn2[C@@H]1O[C@H](CO)[C@@H](O)[C@H]1O [Agonist 2, phenylaminoadenosine] | 43.8 | 43.2-44.2 | 5.2
CCNC(=O)[C@H]1O[C@@H](n2cnc3c(N)nc(NCCc4ccc(CCC(=O)O)cc4)nc32)[C@H](O)[C@@H]1O [Agonist 1, 2-para(2-carboxyethyl)phenethylamino-5′-N-ethyl carboxamido adenosine] | 31.9 | 30.3-33.3 | 1.7
